Tested on: Trametes versicolor
Experiment: Agar medium colony growth inhibition test on Trametes versicolor, with Colby synergy calculation
Type: cell-based
Conditions: single compound, 0.2 ppm, potato dextrose agar, 25° C., seventh day
Procedure: Each of 1% w/v dimethylsulfoxide solution of compound A, cyproconazole (manufactured by Wako Pure Chemical Industries, Ltd.), epoxyconazole (manufactured by Wako Pure Chemical Industries, Ltd.) and tetraconazole (manufactured by Wako Pure Chemical Industries, Ltd.) was prepared. The solutions diluted with dimethylsulfoxide were fully mixed in the sterilized potate dextrose agar medium, and 15 ml of the resultant medium was poured into a petri dish 90 mm in diameter and allowed to stand at room temperature. As a control, the potate dextrose agar medium added with dimethylsulfoxide only was also prepared. After the medium was solidified, the mycelia was scooped with the medium from the colony of Trametes versicolor as being a typical wood-decaying fungi, which had been cultivated in advance, using a cork baller 5 mm in diameter; and inoculated in the center of the test medium. The fungi was cultivated in the petri dish at 25° C., and the diameter of the colony spread from the source of inoculum was measured on the seventh day. The growth inhibition ratio by comparing the diameter of the test colony to that of the control was determined by the above-mentioned formula as an indication of the actual measured growth inhibition ratio. The theoretical efficacy ratio of the mixture of the active ingredients (i.e. theoretical growth inhibition ratio) was determined using the following Colby's formula (R. S. Colby, Weeds 15, 20-22 (1967)) to thereby be compared with the actual-measured efficacy ratio ([…]).
Colby's formula: E=x+y−x·y/100 [Formula 2]
E: theoretical efficacy ratio (theoretical growth inhibition ratio) represented by the ratio (%) to the control when the mixture of active compound B (concentration b) and C (concentration c) was used. x: efficacy ratio (growth inhibition ratio) represented by the ratio (%) to the control when active compound B was used at a concentration of b. y: efficacy ratio (growth inhibition ratio) represented by the ratio (%) to the control when active compound C was used at a concentration of c.

SMILES | Actual measured growth inhibition ratio (%)
FC(F)C(F)(F)OCC(Cn1cncn1)c1ccc(Cl)cc1Cl (stereo not shown) [Tetraconazole] | 25
CC(C)c1cccc(NC(=O)c2ccccc2C(F)(F)F)c1 [Compound A, 3′-isopropyl-2-trifluoromethyl benzoic acid anilide] | 35
Fc1ccc([C@]2(Cn3cncn3)O[C@H]2c2ccccc2Cl)cc1 (racemic) [Epoxiconazole] | 24
CC(C1CC1)C(O)(Cn1cncn1)c1ccc(Cl)cc1 (stereo not shown) [cyproconazole] | 33

Tested on: Coniphora puteana
Experiment: Agar medium colony growth inhibition test on Coniphora puteana
Type: cell-based
Conditions: 0.2 ppm in potato dextrose agar, 25° C., colony diameter on the seventh day vs control
Procedure: A predetermined amount of the solutions diluted with dimethylsulfoxide were fully mixed in the sterilized potato dextrose agar medium, and 15 ml of the resultant medium was poured into a petri dish 90 mm in diameter and allowed to stand at room temperature. As a control, the potato dextrose agar medium added with dimethylsulfoxide only was also prepared. […] The fungi was cultivated in the petri dish at 25° C., and the diameter of the colony spread from the source of inoculum was measured on the seventh day. The growth inhibition ratio between the diameter of the test colony and that of the control was determined by the following formula as an indication of the degree of inhibition. Compound A apparently had greater effects on Coniphora puteana compared to the compounds which had been disclosed in the past. Growth inhibition ratio (%)={(diameter of the control colony−diameter of the test colony)/diameter of the control colony}×100 [Formula 1]

SMILES | Degree of inhibition on Coniphora puteana at 0.2 ppm
CCc1cccc(NC(=O)c2ccccc2C(F)(F)F)c1 [compound 12, 3′-ethyl-2-trifloromethyl benzoic acid anilide] | ▴ (inhibition ratio of 25 to 50%)
O=C(Nc1cccc(OC(F)(F)F)c1)c1ccccc1C(F)(F)F [compound 14, 3′-trifluoromethoxy-2-trifloromethyl benzoic acid anilide] | x (inhibition ratio of 25% or less)
Cc1ccc(C(C)C)cc1NC(=O)c1ccccc1C(F)(F)F [compound 19, 5′-isopropyl-2′-methyl-2-trifluoromethyl benzoic acid anilide] | x (inhibition ratio of 25% or less)
O=C(Nc1cccc(Cl)c1)c1ccccc1C(F)(F)F [compound 16, 3′-chloro-2-trifloromethyl benzoic acid anilide] | x (inhibition ratio of 25% or less)
O=C(Nc1cccc(Br)c1)c1ccccc1C(F)(F)F [compound 17, 3′-bromo-2-trifloromethyl benzoic acid anilide] | x (inhibition ratio of 25% or less)
Cc1ccccc1C(=O)Nc1cccc(OC(C)C)c1 [compound 2, 3′-isopropoxy-2-methyl benzoic acid anilide] | ▴ (inhibition ratio of 25 to 50%)
CC(C)c1cccc(NC(=O)c2ccccc2[N+](=O)[O-])c1 [compound 6, 3′-isopropyl-2-nitrobenzoic acid anilide] | x (inhibition ratio of 25% or less)
CC(C)Oc1cccc(NC(=O)c2ccccc2I)c1 [compound 5, 3′-isopropoxy-2-iodobenzoic acid anilide] | ▴ (inhibition ratio of 25 to 50%)
CC(C)c1cccc(NC(=O)c2ccccc2Br)c1 [compound 7, 3′-isopropyl-2-bromobenzoic acid anilide] | ▴ (inhibition ratio of 25 to 50%)
O=C(Nc1cccc(I)c1)c1ccccc1C(F)(F)F [compound 18, 3′-iodo-2-trifloromethyl benzoic acid anilide] | x (inhibition ratio of 25% or less)
O=C(Nc1ccccc1)c1ccccc1C(F)(F)F [compound 8, 2-trifloromethyl benzoic acid anilide] | x (inhibition ratio of 25% or less)
Cc1ccccc1C(=O)Nc1cccc(C(C)C)c1 [compound 3, 3′-isopropyl-2-methyl benzoic acid anilide] | ▴ (inhibition ratio of 25 to 50%)
Cc1cccc(NC(=O)c2ccccc2C(F)(F)F)c1 [compound 11, 3′-methyl-2-trifloromethyl benzoic acid anilide] | ▴ (inhibition ratio of 25 to 50%)
CC(C)c1ccccc1NC(=O)c1ccccc1C(F)(F)F [compound 9, 2′-isopropyl-2-trifloromethyl benzoic acid anilide] | x (inhibition ratio of 25% or less)
CC(C)Oc1cccc(NC(=O)c2ccccc2C(F)(F)F)c1 [compound 1, 3′-isopropoxy-2-trifloromethyl benzoic acid anilide] | ▴ (inhibition ratio of 25 to 50%)
CC(C)c1ccc(NC(=O)c2ccccc2C(F)(F)F)cc1 [compound 10, 4′-isopropyl-2-trifloromethyl benzoic acid anilide] | x (inhibition ratio of 25% or less)
CC(C)c1cccc(NC(=O)c2ccccc2I)c1 [compound 4, 3′-isopropyl-2-iodobenzoic acid anilide] | ▴ (inhibition ratio of 25 to 50%)
O=C(Nc1cccc(C(F)(F)F)c1)c1ccccc1C(F)(F)F [compound 13, 2,3′-trifluoromethyl benzoic acid anilide] | x (inhibition ratio of 25% or less)
O=C(Nc1cccc(F)c1)c1ccccc1C(F)(F)F [compound 15, 3′-fluoro-2-trifloromethyl benzoic acid anilide] | x (inhibition ratio of 25% or less)

Same assay, conditions: 0.2 ppm in potato dextrose agar, 25° C., colony diameter on the seventh day vs control; read-out: Degree of inhibition on Coniphora puteana at 0.2 ppm

SMILES | inhibition at 0.2 ppm [%]
CC(C)c1cccc(NC(=O)c2ccccc2C(F)(F)F)c1 [Compound A, 3′-isopropyl-2-trifluoromethyl benzoic acid anilide] | ≥ 75

Tested on: not given
Experiment: not given
Conditions: not given

SMILES | melting point [°C]
CC(C)c1cccc(NC(=O)c2ccccc2C(F)(F)F)c1 [Compound A, 3′-isopropyl-2-trifluoromethyl benzoic acid anilide] | 98 to 101
